# Results reported in US8507488B2, “Fused nitrogen containing heterocycles and compositions thereof as kinase inhibitors” (IRM LLC, priority 2008, dated 2013).
# pIC50: −log10 of the molar value.
# Assays:
# Tel-TrkB = molecular target: T1, Tel-TrkB (Homo sapiens, UniProt Q16620); assay: Inhibition of proliferation of Ba/F3 cells expressing Tel-TrkB (BaF3/Tel-TrkB); assay type: cell-based; conditions: Ba/F3 Tel-TrkB cells; read-out: Ba/F3 Tel-TrkB IC 50
# T1 construct: dimerization domain of Tel (ETV6) transcription factor (fusion partner, human ETV6 P41212); expressed in transfected cells; host or cells: luciferase expressing Ba/F3 murine hematopoietic progenitor cells; the other entry of the earlier key: ETV6 (P41212, Transcription factor ETV6)
# T1 sequence (Q16620 538-822 limits assumed): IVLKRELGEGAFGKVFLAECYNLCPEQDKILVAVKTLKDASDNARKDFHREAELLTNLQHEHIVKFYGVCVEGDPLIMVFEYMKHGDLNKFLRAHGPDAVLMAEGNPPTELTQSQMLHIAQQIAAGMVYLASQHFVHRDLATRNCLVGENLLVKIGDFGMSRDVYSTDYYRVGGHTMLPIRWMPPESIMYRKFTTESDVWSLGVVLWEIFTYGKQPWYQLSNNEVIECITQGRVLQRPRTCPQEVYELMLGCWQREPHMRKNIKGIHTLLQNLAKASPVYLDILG
# Description: (§1) Test compounds were dissolved in DMSO (10 mM) and transferred into 1.4 mL flat bottom or V-shaped Matrix tubes carrying a unique 2D matrix chip by individual compound hubs. The numbers of these chips were distinctively linked to the individual compound identification numbers. The stock solutions were stored at −20° C. if not used immediately. For the test procedure the vials were defrosted and identified by a scanner whereby a working sheet is generated that guides the subsequent working steps.
# (§2) Compound dilutions were made in 384 well plates. This format enabled the assay of maximally 28 individual test compounds at 12 concentrations (single points) including 2 reference compounds. The dilution protocol included the production of pre-dilution plates, master plates and assay plates: • Compound plates: 30 μL of individual compound (10 mM) DMSO solution including standard compound were transferred into columns 1 and 13 of a 384 well plate. 20 μL of DMSO were added to the rest of the wells and the compounds were serially diluted (1:3) by transferring 10 μL from a well in column 1 or 13 to the next well in column 2 or 14 respectively and successively with the help of a Minitrack robot. • Assay plates: Identical assay plates were then prepared by adding […] each of compound dilutions of the compound plates into 384-well “assay plates”. In the following the compounds were mixed with 50 μL of assays components (cells or enzyme) and tested for their inhibitory activity.
# (§3) Compounds of Formula (I) were tested for their antiproliferative effect on Ba/F3 cells expressing either Tel-TrkA, Tel-TrkB or Tel-TrkC and an additional panel of 34 selected diverse kinases activated by fusion to the dimerizing partners Bcr or Tel (Abl, A1K, BMX, EphA3, EphB2, FGFR2, FGFR3, FGFR4, FGR, FLT1, FLT3, FLT4, FMS, IGF1R, InsR, JAK1, JAK2, JAK3, KDR, Kit, Lck, Lyn, MER, MET, PDGFRb, RET, RON, Ros-1, Src, Aurora, TIE2, TYK2, Tie1, ZAP70). The antiproliferative effect of these compounds on the different cell lines and on the non transformed cells were tested at 12 different concentrations of 3-fold serially diluted compounds in 384 well plates as described above (in media lacking IL3). The IC50 values of the compounds the different cell lines were determined from dose response curves.
# (§4) The cell line used is the luciferase expressing Ba/F3 murine hematopoietic progenitor cell line transformed with human Tel-TrkA, Tel-TrkB or Tel-TrkC cDNAs (Ba/F3 EN A/B/C). These cells maintained in RPMI/10% fetal bovine serum (RPMI/FCS) supplemented with penicillin 50 mg/mL, streptomycin 50 mg/mL and L-glutamine […]. Untransformed Ba/F3 cells were similarly maintained with the addition 5 ng/ml of murine recombinant IL3. 50 μl of a Ba/F3 or Ba/F3 EN A/B/C cell suspension were plated in Greiner 384 well microplates (white)) at a density of 2000 cells per well. […] The cells were incubated for 48 hours at 37° C., 5% CO2. 25 μl of Bright Glo® (Promega) luciferase substrate is added to each well. The emited luminiscence is quantified using the ACQUEST™ luminescence system (Molecular Devices). IC50 values were calculated by linear regression analysis of the percentage inhibition of each compound at 12 concentrations.
# [1] = molecular target: T2, full length rTrkA and mNGF (Rattus norvegicus, UniProt P35739); assay: Inhibition of proliferation of Ba/F3 cells co-expressing full length rTrkA and mNGF (BaF3/TrkA-NFG); assay type: cell-based; conditions: BaF3 TRKA-NGF cells, CTG readout
# T2 construct: co-expressing full length rTrkA and mNGF; expressed in transfected cells; host or cells: Ba/F3 cells
# T2 sequence (P35739 33-799): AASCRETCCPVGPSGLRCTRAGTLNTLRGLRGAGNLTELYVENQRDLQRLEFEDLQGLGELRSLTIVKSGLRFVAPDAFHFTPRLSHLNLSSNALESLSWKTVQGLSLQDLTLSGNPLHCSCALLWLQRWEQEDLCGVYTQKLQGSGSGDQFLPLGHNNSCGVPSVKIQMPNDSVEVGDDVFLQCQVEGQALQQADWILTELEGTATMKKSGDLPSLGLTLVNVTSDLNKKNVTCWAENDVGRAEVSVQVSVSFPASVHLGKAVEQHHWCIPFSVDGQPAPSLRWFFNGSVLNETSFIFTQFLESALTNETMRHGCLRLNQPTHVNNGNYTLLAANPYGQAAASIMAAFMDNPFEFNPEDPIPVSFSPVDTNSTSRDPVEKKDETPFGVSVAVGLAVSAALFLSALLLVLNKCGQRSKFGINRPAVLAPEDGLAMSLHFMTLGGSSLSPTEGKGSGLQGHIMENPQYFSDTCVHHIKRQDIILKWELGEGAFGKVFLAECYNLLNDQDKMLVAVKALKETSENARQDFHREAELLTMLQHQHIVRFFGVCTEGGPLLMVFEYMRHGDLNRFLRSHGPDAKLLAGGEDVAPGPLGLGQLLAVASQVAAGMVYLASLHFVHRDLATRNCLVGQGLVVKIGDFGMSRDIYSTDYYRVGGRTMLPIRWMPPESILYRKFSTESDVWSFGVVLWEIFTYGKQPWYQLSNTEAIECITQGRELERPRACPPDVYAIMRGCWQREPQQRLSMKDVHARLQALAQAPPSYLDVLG
# T2 sequence (P01139 122-241 partner): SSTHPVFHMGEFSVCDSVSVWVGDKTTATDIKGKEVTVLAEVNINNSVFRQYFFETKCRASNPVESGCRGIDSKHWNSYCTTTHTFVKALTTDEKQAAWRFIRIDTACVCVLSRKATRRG
# KM12 luc = KM12 luc cell proliferation assay (Table 8); assay type: cell-based; conditions: KM12 luc cells; read-out: KM12 luc IC 50
# Tel-TrkA = molecular target: T3, Tel-TrkA (Homo sapiens, UniProt P04629); assay: Inhibition of proliferation of Ba/F3 cells expressing Tel-TrkA (BaF3/Tel-TrkA, luciferase/Bright Glo readout); assay type: cell-based; conditions: read-out: Ba/F3 Tel-TrkA IC 50
# T3 construct: dimerization domain of Tel (ETV6) transcription factor (fusion partner, human ETV6 P41212); expressed in transfected cells; host or cells: luciferase expressing Ba/F3 murine hematopoietic progenitor cells; the other entry of the earlier key: ETV6 (P41212, Transcription factor ETV6)
# T3 sequence (P04629 510-796 limits assumed): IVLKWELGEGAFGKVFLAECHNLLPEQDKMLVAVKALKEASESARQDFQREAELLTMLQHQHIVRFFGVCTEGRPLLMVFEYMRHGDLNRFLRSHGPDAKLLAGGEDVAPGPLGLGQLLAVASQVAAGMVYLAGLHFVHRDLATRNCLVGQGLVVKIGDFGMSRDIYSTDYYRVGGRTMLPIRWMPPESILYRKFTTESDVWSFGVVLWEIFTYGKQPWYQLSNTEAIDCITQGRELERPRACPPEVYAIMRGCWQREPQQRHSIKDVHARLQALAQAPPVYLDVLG
# Description: as §1, §2, §3, §4
# parental BaF3 cells = assay: Proliferation of parental (untransformed) Ba/F3 cells maintained with IL3; assay type: cell-based, murine; conditions: Mus musculus, BaF3, parental Ba/F3 cells; read-out: Ba/F3 IC 50
# Description: as §1, §2
# The cell line used is the luciferase expressing Ba/F3 murine hematopoietic progenitor cell line transformed with human Tel-TrkA, Tel-TrkB or Tel-TrkC cDNAs (Ba/F3 EN A/B/C). These cells maintained in RPMI/10% fetal bovine serum (RPMI/FCS) supplemented with penicillin 50 mg/mL, streptomycin 50 mg/mL and L-glutamine […]. Untransformed Ba/F3 cells were similarly maintained with the addition 5 ng/ml of murine recombinant IL3. 50 μl of a Ba/F3 or Ba/F3 EN A/B/C cell suspension were plated in Greiner 384 well microplates (white)) at a density of 2000 cells per well. 50 nl of serially diluted test compound (10-0.0001 mM in DMSO solution) is added to each well. The cells were incubated for 48 hours at 37° C., 5% CO2. 25 μl of Bright Glo® (Promega) luciferase substrate is added to each well. The emited luminiscence is quantified using the ACQUEST™ luminescence system (Molecular Devices). IC50 values were calculated by linear regression analysis of the percentage inhibition of each compound at 12 concentrations.
Compound,pIC50 (Tel-TrkB),BaF3 TRKA-NGF CTG IC 50 [1],pIC50 (Tel-TrkA),pIC50 (KM12 luc),pIC50 (parental BaF3 cells)
N#Cc1cc(-c2cnc3ccc(N4CCOCC4c4cccc(F)c4)nn23)ccc1F (centres unmarked) [Table 2-Compound 6],7.36,78 nM,7.24,7.25,< 5.00
N#Cc1ccc(-c2cnc3ccc(N4CCOCC4c4cccc(F)c4)nn23)cc1 (centres unmarked) [Table 2-Compound 1],,,,8.15,< 5.01
Cc1c[nH]c(C2CCN(c3cccc(-c4cnc5ccc(N6CCOCC6c6cccc(F)c6)nn45)n3)CC2)n1 (centres unmarked) [Table 7-Compound 143],7.28,31 nM,7.47,,< 4.96
CN1CCC(N2CCN(c3cccc(-c4cnc5ccc(N6CCOCC6c6cccc(F)c6)nn45)n3)CC2)CC1 (centres unmarked) [Table 7-Compound 8],8.06,6.1 nM,8.09,,5.80
O=C(CO)NC1CN(c2cccc(-c3cnc4ccc(N5CCC[C@@H]5c5cccc(F)c5)nn34)n2)C1 [Table 7-Compound 132],8.70,4 nM,8.70,,< 4.96
Fc1ccc(N2CCN(c3cccc(-c4cnc5ccc(N6CCC[C@@H]6c6cccc(F)c6)nn45)n3)CC2)cc1 [Table 7-Compound 257],6.54,101 nM,6.89,,< 4.96
CNC(=O)OC1CCN(c2cccc(-c3cnc4ccc(N5CCC[C@@H]5c5cccc(F)c5)nn34)n2)CC1 [Table 7-Compound 185],7.15,119 nM,7.19,,< 4.96
Fc1cccc([C@H]2CCCN2c2ccc3ncc(-c4cccc(N5CC[C@@H](NCC(F)(F)F)C5)n4)n3n2)c1 [Table 7-Compound 217],7.52,60 nM,7.57,,< 4.96
CNC1CCN(c2cc(-c3cccc(-c4cnc5ccc(N6CCCC6c6cccc(F)c6)nn45)n3)ccn2)CC1 (centres unmarked) [Table 7-Compound 249],6.83,130 nM,6.84,,5.19
OCCN1CCN(c2cccc(-c3cnc4ccc(N5CCCC5c5cccc(F)c5)nn34)n2)CC1 (centres unmarked) [Table 7-Compound 100],8.70,3 nM,8.70,,5.36
Fc1cccc(C2CCCN2c2ccc3ncc(-c4cccc(-c5cnco5)n4)n3n2)c1 (centres unmarked) [Table 7-Compound 20],8.80,3.6 nM,8.74,,< 5.00
Fc1cccc(C2COCCN2c2ccc3ncc(-c4cccc(N5CCOCC5)n4)n3n2)c1 (centres unmarked) [Table 2-Compound 10],8.21,8.8 nM,8.16,,< 5.00

# The next lines start with results.
pIC50 (Tel-TrkB),BaF3 TRKA-NGF CTG IC 50 [1],pIC50 (Tel-TrkA),Compound,pIC50 (KM12 luc),pIC50 (parental BaF3 cells)
6.64,550 nM,7.08,N#Cc1cc(-c2cnc3ccc(N4CCOCC4c4cccc(F)c4)nn23)ccc1N1CCC(O)CC1 (centres unmarked) [Table 2-Compound 7],6.85,< 5.00
8.82,5.2 nM,8.17,OCC(O)CNc1cccc(-c2cnc3ccc(N4CCCC4c4cccc(F)c4)nn23)n1 (centres unmarked) [Table 4-Compound 16],8.66,< 5.00
7.82,20 nM,7.89,CC(F)C(=O)N(C)C1CCN(c2cccc(-c3cnc4ccc(N5CCCC5c5cccc(F)c5)nn34)n2)C1 (centres unmarked) [Table 7-Compound 201],8.00,< 4.96
5.97,1340 nM,5.96,Fc1cccc(C2CCCN2c2ccc3ncc(-c4csc(CN5CCNCC5)n4)n3n2)c1 (centres unmarked) [Table 3-Compound 30],,< 5.00
5.77,1420 nM,5.66,CCOC(=O)N1CCC(n2c(=O)[nH]c3cc(-c4cnc5ccc(N6CCOCC6c6cccc(F)c6)nn45)ccc32)CC1 (centres unmarked) [Table 2-Compound 19],,5.30
8.21,6.4 nM,8.42,OCCN1CCN(c2cccc(-c3cnc4ccc(N5CCOCC5c5cccc(F)c5)nn34)n2)CC1 (centres unmarked) [Table 7-Compound 5],,5.32
7.15,77 nM,7.21,Fc1cccc(C2COCCN2c2ccc3ncc(-c4cccc(NCCN5CCNCC5)n4)n3n2)c1 (centres unmarked) [Table 7-Compound 10],,< 5.00
8.05,13 nM,8.22,OCC1CCCN(c2cccc(-c3cnc4ccc(N5CCCC5c5cccc(F)c5)nn34)n2)C1 (centres unmarked) [Table 7-Compound 98],,< 4.96
8.15,28 nM,8.00,Fc1cccc(C2CCCN2c2ccc3ncc(-c4cccc(OCCN5CCOCC5)n4)n3n2)c1 (centres unmarked) [Table 4-Compound 25],,5.12
8.12,12 nM,8.11,O=C(C1CCN(c2cccc(-c3cnc4ccc(N5CCOCC5c5cccc(F)c5)nn34)n2)CC1)N1CCC(O)C1 (centres unmarked) [Table 7-Compound 26],,< 5.00
7.60,35 nM,7.77,C=CC1(O)CCN(c2cccc(-c3cnc4ccc(N5CCC[C@@H]5c5cccc(F)c5)nn34)n2)CC1 [Table 7-Compound 238],,< 4.96
8.05,29 nM,8.22,[2H]C([2H])([2H])N(C1CCN(c2cccc(-c3cnc4ccc(N5CCC[C@@H]5c5cccc(F)c5)nn34)n2)CC1)C([2H])([2H])[2H] [Table 7-Compound 230],,5.57
6.61,698 nM,6.46,Fc1cccc(C2CCCN2c2ccc3ncc(-c4cc5ccccc5nc4F)n3n2)c1 (centres unmarked) [Table 7-Compound 153],,< 4.96
7.64,35 nM,7.37,O=C(NOCC1CC1)C1CCN(c2cccc(-c3cnc4ccc(N5CCOCC5c5cccc(F)c5)nn34)n2)CC1 (centres unmarked) [Table 7-Compound 22],,< 5.00
6.27,370 nM,5.99,O=C(c1ccc(-c2cnc3ccc(N4CCCC4c4cccc(F)c4)nn23)cn1)N1CCC(O)CC1 (centres unmarked) [Table 3-Compound 26],,< 5.00
